{"source": "patent US10670605B2", "about": "“Cysteine reactive probes and uses thereof” (The Scripps Research Institute, priority 2015, dated 2020)", "key": {"CLTC C870 (Q00610)": {"target": "CLTC C870 (Q00610) (Homo sapiens, UniProt Q00610)", "sequence (Q00610 whole entry, the tested form may be a part)": "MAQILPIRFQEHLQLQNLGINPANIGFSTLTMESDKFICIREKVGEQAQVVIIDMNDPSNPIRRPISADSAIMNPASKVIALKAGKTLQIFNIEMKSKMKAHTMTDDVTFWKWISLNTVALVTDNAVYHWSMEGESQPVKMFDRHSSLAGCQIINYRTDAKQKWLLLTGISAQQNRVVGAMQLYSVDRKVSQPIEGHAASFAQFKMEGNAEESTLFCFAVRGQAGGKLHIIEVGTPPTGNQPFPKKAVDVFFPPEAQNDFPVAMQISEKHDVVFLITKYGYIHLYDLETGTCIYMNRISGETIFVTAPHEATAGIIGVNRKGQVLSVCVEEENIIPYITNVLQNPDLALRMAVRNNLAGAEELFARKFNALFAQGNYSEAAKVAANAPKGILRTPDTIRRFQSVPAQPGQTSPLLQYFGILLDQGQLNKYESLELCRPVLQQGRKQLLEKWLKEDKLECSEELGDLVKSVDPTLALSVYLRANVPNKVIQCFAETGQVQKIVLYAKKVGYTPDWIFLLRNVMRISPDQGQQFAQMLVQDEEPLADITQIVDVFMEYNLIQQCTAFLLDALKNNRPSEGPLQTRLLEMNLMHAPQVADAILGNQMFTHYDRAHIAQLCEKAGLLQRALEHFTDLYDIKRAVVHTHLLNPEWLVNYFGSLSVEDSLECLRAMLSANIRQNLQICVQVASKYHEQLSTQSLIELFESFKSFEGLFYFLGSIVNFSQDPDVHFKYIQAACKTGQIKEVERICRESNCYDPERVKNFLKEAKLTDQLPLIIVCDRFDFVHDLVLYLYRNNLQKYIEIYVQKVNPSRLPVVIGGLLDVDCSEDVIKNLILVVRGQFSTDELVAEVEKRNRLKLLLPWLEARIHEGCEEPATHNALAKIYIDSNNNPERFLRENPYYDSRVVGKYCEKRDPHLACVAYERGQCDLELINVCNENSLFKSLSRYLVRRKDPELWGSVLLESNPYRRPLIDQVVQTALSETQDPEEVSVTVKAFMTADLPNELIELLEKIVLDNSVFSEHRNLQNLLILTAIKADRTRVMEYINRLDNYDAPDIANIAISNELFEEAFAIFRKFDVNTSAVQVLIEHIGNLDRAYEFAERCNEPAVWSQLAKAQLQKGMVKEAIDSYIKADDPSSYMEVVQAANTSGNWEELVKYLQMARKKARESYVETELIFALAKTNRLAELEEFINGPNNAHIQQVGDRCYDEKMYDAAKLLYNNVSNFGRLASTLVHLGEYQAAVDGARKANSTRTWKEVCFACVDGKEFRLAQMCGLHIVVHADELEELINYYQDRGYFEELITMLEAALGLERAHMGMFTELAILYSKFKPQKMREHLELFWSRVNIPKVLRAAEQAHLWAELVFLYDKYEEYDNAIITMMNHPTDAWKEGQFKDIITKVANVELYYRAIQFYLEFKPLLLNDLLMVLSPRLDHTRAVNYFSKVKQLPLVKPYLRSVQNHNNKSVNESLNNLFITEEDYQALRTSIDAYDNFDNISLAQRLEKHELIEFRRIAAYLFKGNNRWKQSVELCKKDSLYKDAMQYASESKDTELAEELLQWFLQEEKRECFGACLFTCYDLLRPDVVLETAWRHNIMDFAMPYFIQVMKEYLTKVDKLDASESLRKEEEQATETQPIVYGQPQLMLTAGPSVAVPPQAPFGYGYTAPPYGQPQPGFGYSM", "assay": "Competitive isoTOP-ABPP in situ", "format": "cell-based", "details": "fragment 4 at 100 μM, MDA-MB-231 cells"}, "CDKN3 C39 (Q16667)": {"target": "CDKN3 C39 (Q16667) (Homo sapiens, UniProt Q16667)", "sequence (Q16667 whole entry, the tested form may be a part)": "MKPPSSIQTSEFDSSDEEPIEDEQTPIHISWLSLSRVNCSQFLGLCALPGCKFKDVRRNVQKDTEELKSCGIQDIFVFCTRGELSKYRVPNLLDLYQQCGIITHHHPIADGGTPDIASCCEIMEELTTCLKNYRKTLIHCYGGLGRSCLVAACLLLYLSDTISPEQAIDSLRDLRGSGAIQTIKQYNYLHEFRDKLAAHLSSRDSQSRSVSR", "assay": "Competitive isoTOP-ABPP in situ", "format": "cell-based", "details": "fragment 4 at 100 μM, MDA-MB-231 cells"}, "[1]": {"system": "Nrf2(+/+) and (-/-) T cells", "assay": "CD25 expression in Nrf2(+/+) and (-/-) T cells", "format": "cell-based, mouse", "details": "24 h", "method": "C57BL/6J and Nrf2^-/- mice (Stock No:017009; […]: Jackson Labs) were bred and maintained in a closed breeding facility at The Scripps Research Institute and were 6-8 weeks old when used in experiments. All mice were used in accordance with guidelines from the Institutional Animal Care and Use Committee of The Scripps Research Institute. Spleens were harvested from female mice, perfused with collagenase, and incubated at 37° C. with 5% CO2 for 30 min. After this time, the spleens were homogenized. Cells that passed through a 100 μm cell strainer were collected and washed with RPMI. T cells were isolated from the splenocytes using the EasySepTM Mouse T cell Isolation Kit (19851; […]) according to manufacturer's instructions. 96-well plates were coated with anti-CD3 (1:200; BioXcell) and anti-CD28 (1:500; 302933; BioLegend) in PBS (100 μL/well) overnight at 4° C. The plates were then washed twice with PBS and to each well was added 500,000 primary T cells in 100 μL of RPMI supplemented with 10% FBS, glutamine, and Pen-Strep. Cells were then treated with 100 μL of media containing compound at the indicated concentrations (final well volume of 200 μL). Cells were left at 37° C. in a 5% CO2 incubator for the indicated periods of time and harvested by centrifugation (500 g, 8 min, 4° C.), followed by washing with PBS. […] Data was then analyzed with FlowJo software (Treestar Inc.). […]"}, "TIGAR": {"target": "T1, TIGAR (Homo sapiens, UniProt Q9NQ88)", "T1 construct": "His6 (N); made in house; host or cells: E. coli BL21(DE3)", "T1 sequence (Q9NQ88 whole entry)": "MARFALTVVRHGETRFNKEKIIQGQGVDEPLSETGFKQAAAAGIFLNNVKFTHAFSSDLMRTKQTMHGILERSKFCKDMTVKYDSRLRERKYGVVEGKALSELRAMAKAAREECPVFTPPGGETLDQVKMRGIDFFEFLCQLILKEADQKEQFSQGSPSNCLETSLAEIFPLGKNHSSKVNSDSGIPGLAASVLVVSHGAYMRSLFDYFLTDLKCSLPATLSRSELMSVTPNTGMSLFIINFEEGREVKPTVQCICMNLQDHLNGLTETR", "assay": "TIGAR activity assay", "format": "biochemical", "details": "WT-TIGAR, concentration series", "method": "TIGAR activity assay was conducted as described in Gerin et al. The Biochemical Journal 458:439-448 (2014). Formation of 3PG (3-phosphoglycerate) production from 23BPG (2,3-bisphosphoglycerate) was measured spectrophotometrically on a TECAN plate reader, measuring decrease in absorbance at 340 nm in clear, flat-bottom 96 well microplate (Corning® Costar®). 2 μL of recombinant TIGAR (10 mg/mL) was diluted into 1 mL dilution buffer (25 mM HEPES, pH 7.1, 25 mM KCl, 1 mM MgCl2). 25 μL of diluted protein was incubated for 1 h with the indicated concentration of compound (1 μL, 25× stock in DMSO). Then 75 μL of assay mixture comprised of 25 mM HEPES (pH 7.1), 25 mM KCl, 1 mM MgCl2, 0.5 mM NADH, 1 mM DTT, 1 mM 23BPG, 1 mM ATP-Mg, the equivalent of 1 μL each of rabbit muscle GAPDH (4000 units/mL, Sigma, G5537) and yeast PG kinase (6300 units/mL, Sigma, P7634) was added to the protein and decrease in absorbance was monitored at 340 nm. The background, calculated from samples lacking TIGAR, was subtracted from samples containing TIGAR. Experiments were performed in quadruplicate."}}, "note": "Counter-ions that a name gives are not always drawn.", "data": [{"smiles": "COc1ccc(C2CC(c3cccs3)=NN2C(=O)CCl)cc1", "note": "(stereo not shown) [compound 4]", "values": [{"measurement": "isoTOP-ABPP reactivity profile (ratio) 4_100 μM_in-situ_231", "setting": "CLTC C870 (Q00610)", "value": 2.1}, {"measurement": "isoTOP-ABPP reactivity profile (ratio) 4_100 μM_in-situ_231", "setting": "CDKN3 C39 (Q16667)", "value": 0.6}]}, {"smiles": "COC(=O)/C=C/C(=O)OC", "note": "[DMF, dimethyl fumarate]", "values": [{"measurement": "sensitivity of activation of Nrf2(+/+) and (-/-) T cells", "setting": "[1]", "value": "similarly sensitive"}]}, {"smiles": "C=CC(=O)N(c1ccccc1)c1ccc(Br)cc1", "note": "[compound 5]", "values": [{"measurement": "plateau of inhibition of TIGAR substrate turnover", "setting": "TIGAR", "value": 70, "unit": "%"}]}]}
